Assay results taken from ChEMBL document CHEMBL2417537, “Synthesis and antifungal activity of terpenyl-1,4-naphthoquinone and 1,4-anthracenedione derivatives” (Eur J Med Chem, 2013).
In brackets after ≈: the same amount, converted by molar mass. Activity calls are given as the source filed them. The rule behind the calls is not given here.

Assays:
[1] = Selectivity index, ratio of IC50 for african green monkey Vero cells to IC50 for Aspergillus flavus ATCC 204304; assay type: toxicity, cell-based; conditions: read-out: Ratio IC50
Candida parapsilosis [2] = assay: Antifungal activity against Candida parapsilosis ATCC 22019 after 24 hrs; assay type: functional; conditions: ATCC 22019, 24 h
[3] = system: Trichophyton mentagrophytes; assay: Antifungal activity against Trichophyton mentagrophytes ATCC 24198 after 6 days; assay type: functional; conditions: ATCC 24198, 144 h
Aspergillus flavus = assay: Antifungal activity against Aspergillus flavus ATCC 204304 after 48 hrs; assay type: functional; conditions: ATCC 204304, 48 h
Aspergillus fumigatus = assay: Antifungal activity against Aspergillus fumigatus ATCC 204305 after 48 hrs; assay type: functional; conditions: ATCC 204305, 48 h
Candida parapsilosis [4] = assay: Antifungal activity against Candida parapsilosis ATCC 22019 at > MIC up to 24 hrs by time kill study; assay type: functional, organism-based
Vero = assay: Cytotoxicity against african green monkey Vero cells after 48 hrs by MTT assay; assay type: cell-based; conditions: Chlorocebus sabaeus
Pichia kudriavzevii = assay: Antifungal activity against Candida krusei ATCC 6258 after 24 hrs; assay type: functional; conditions: ATCC 6258, 24 h
Trichophyton rubrum = assay: Antifungal activity against Trichophyton rubrum ATCC 28188 after 6 days; assay type: functional; conditions: ATCC 28188, 144 h
[5] = Selectivity index, ratio of IC50 for african green monkey Vero cells to IC50 for Candida krusei ATCC 6258; assay type: toxicity, cell-based; conditions: read-out: Ratio IC50
Aspergillus terreus = assay: Antifungal activity against Aspergillus terreus CDC 317 after 48 hrs; assay type: functional; conditions: CDC 317, 48 h
Aspergillus niger = assay: Antifungal activity against Aspergillus niger ATCC 16404 after 48 hrs; assay type: functional; conditions: ATCC 16404, 48 h
[6] = Selectivity index, ratio of IC50 for african green monkey Vero cells to IC50 for Candida lusitaniae ATCC 200951; assay type: toxicity, cell-based; conditions: read-out: Ratio IC50
Candida tropicalis [7] = assay: Antifungal activity against Candida tropicalis ATCC 200956 after 24 hrs; assay type: functional; conditions: ATCC 200956, 24 h
Fusarium oxysporum = assay: Antifungal activity against Fusarium oxysporum ATCC 48112 after 48 hrs; assay type: functional; conditions: ATCC 48112, 48 h
Candida albicans [8] = assay: Antifungal activity against Candida albicans ATCC 10231 after 24 hrs; assay type: functional; conditions: ATCC 10231, 24 h
Clavispora lusitaniae = assay: Antifungal activity against Candida lusitaniae ATCC 200951 after 24 hrs; assay type: functional; conditions: ATCC 200951, 24 h
Candida albicans [9] = assay: Antifungal activity against Candida albicans ATCC 90028 after 24 hrs; assay type: functional; conditions: ATCC 90028, 24 h
Candida parapsilosis [10] = assay: Antifungal activity against Candida parapsilosis ATCC 22019 at 0.5 MIC up to 24 hrs by time kill study; assay type: functional, organism-based
Candida tropicalis [11] = assay: Antifungal activity against Candida tropicalis CECT 11901 after 24 hrs; conditions: CECT 11901, 24 h
[12] = Selectivity index, ratio of IC50 for african green monkey Vero cells to IC50 for Candida parapsilosis ATCC 22019; assay type: toxicity, cell-based

SMILES | selectivity ratio [1] | MIC90 (Candida parapsilosis [2]) [µg/mL] | MIC90 [3] [µg/mL] | MIC90 (Aspergillus flavus) [µg/mL] | MIC90 (Aspergillus fumigatus) [µg/mL] | Activity (Candida parapsilosis [4]) | IC50 (Vero) [µg/mL] | MIC90 (Pichia kudriavzevii) [µg/mL] | MIC90 (Trichophyton rubrum) [µg/mL] | also measured
C[C@@H]1[C@H](O)[C@@H](C)/C=C/C=C/C=C/C=C/C=C/C=C/C=C/[C@H](O[C@@H]2O[C@H](C)[C@@H](O)[C@H](N)[C@@H]2O)C[C@@H]2O[C@](O)(C[C@@H](O)C[C@@H](O)[C@H](O)CC[C@@H](O)C[C@@H](O)CC(=O)O[C@H]1C)C[C@H](O)[C@H]2C(=O)O [AMPHOTERICIN B] | 7.1 | 2 (≈ 2.16 µM) | < 0.004 | 4 (≈ 4.33 µM) | 2 (≈ 2.16 µM) | Active | 28.6 (≈ 30.9 µM) | 2 (≈ 2.16 µM) | < 0.004 | –
CC1(C)CCCc2cc3c(cc21)C(=O)C(Cl)=C(Cl)C3=O | > 5.2 | 2 (≈ 6.47 µM) | 6.1 (≈ 19.7 µM) | 4.8 (≈ 15.5 µM) | 8 (≈ 25.9 µM) | Active | ≤ 25 | 1 (≈ 3.23 µM) | 8 (≈ 25.9 µM) | selectivity ratio [5]: > 25; MIC90 (Aspergillus terreus): > 32 µg/mL; MIC90 (Aspergillus niger): > 32 µg/mL; selectivity ratio [6]: > 12.5; MIC90 (Candida tropicalis [7]): 5 µg/mL (≈ 16.2 µM); MIC90 (Fusarium oxysporum): > 32 µg/mL; MIC90 (Candida albicans [8]): > 32 µg/mL; MIC90 (Clavispora lusitaniae): 2 µg/mL (≈ 6.47 µM); MIC90 (Candida albicans [9]): 8 µg/mL (≈ 25.9 µM); Activity (Candida parapsilosis [10]): inactive; MIC90 (Candida tropicalis [11]): > 32 µg/mL; selectivity ratio [12]: > 12.5
